Consider 16 compounds from ChEMBL document CHEMBL1138214 (J Med Chem, 2006).

In data set [1] the target is T1, C-X-C chemokine receptor type 2 (Homo sapiens, UniProt P25025).
T1 sequence (P25025 whole entry): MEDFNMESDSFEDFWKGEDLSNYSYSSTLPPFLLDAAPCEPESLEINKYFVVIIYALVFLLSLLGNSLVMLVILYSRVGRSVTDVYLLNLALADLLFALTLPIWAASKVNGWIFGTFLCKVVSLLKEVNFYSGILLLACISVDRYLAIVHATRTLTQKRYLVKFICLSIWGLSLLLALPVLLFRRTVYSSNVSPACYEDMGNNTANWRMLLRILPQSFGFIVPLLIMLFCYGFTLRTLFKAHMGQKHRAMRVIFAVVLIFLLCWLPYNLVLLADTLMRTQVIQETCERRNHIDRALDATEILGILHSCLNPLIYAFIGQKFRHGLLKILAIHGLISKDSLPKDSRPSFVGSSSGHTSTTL
Nature of the data set: Displacement of [125I]hCXCL8 from human CXCR2 receptor expressed in BaF3 cells. The data set is classed as cell-based.

Data set [2] is described as follows: AUC (0-6h) in rat at 10 mg/kg, po. The class given is ADME, organism-based. On the set-up: time < 6 hr, dose 10 mg/kg, route oral. The conditions noted are these: plasma.
Data set [3] addresses T2, C-X-C chemokine receptor type 1 (Homo sapiens) (UniProt P25024).
T2 sequence (whole entry): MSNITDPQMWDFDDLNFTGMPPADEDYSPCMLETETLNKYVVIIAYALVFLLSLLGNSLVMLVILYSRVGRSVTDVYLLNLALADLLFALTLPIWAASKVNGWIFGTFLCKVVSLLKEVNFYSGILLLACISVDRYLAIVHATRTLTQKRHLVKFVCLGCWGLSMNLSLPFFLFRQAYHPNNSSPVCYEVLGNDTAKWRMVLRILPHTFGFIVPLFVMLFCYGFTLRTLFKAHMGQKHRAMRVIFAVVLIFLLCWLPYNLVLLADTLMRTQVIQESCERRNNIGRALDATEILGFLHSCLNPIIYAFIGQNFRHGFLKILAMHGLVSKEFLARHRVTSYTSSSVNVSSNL
Nature of the data set: Displacement of [125I]hCXCL8 from human CXCR1 receptor expressed in BaF3 cells at >10000 nM. The data set is classed as cell-based. On the technique in general: Displacement assays read how much labelled ligand stays bound in the presence of the test substance.

Data set [4] deals with T3, Interleukin-8 receptors, CXCR1/CXCR2 (Homo sapiens, UniProt P25025+P25024).
T3 sequence (P25025 whole entry): T1 sequence (P25025 whole entry)
T3 sequence (P25024 whole entry): T2 sequence (whole entry)
Put plainly: Inhibition of CXCL8-induced human neutrophil chemotaxis. The class given is functional.

The target in data set [5] is T4, C-X-C chemokine receptor type 1 (Homo sapiens, UniProt P25024).
T4 sequence (P25024 whole entry): T2 sequence (whole entry)
Put plainly: Displacement of [125I]hCXCL8 from human CXCR1 receptor expressed in BaF3 cells. The class given is cell-based.

Data set [6] concerns the target Interleukin-8 receptors, CXCR1/CXCR2 (Homo sapiens) (UniProt P25025+P25024). Put plainly: Selectivity for CXCR2 over CXCR1. The data set is classed as protein assay.
Data set [7] addresses T5, C5a anaphylatoxin chemotactic receptor 1 (Homo sapiens) (UniProt P21730).
T5 sequence (whole entry): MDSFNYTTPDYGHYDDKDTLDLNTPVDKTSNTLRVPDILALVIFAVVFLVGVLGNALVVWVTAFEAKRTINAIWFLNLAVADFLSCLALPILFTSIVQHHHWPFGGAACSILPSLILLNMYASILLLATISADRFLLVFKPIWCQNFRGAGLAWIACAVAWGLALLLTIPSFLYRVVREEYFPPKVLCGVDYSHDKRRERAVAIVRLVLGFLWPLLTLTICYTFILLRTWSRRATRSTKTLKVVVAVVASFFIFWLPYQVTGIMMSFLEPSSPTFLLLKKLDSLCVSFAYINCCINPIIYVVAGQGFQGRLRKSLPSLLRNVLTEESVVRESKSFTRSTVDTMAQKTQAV
Put plainly: Inhibition of C5a-induced human neutrophil chemotaxis. The class given is functional.

Data set [8] addresses C-C chemokine receptor type 5 (Homo sapiens) (UniProt P51681). Put plainly: Inhibition of CCR5 receptor at 2 to 20 uM.
The target of data set [9] is T6, C-X-C chemokine receptor type 3 (Homo sapiens) (UniProt P49682).
T6 sequence (whole entry): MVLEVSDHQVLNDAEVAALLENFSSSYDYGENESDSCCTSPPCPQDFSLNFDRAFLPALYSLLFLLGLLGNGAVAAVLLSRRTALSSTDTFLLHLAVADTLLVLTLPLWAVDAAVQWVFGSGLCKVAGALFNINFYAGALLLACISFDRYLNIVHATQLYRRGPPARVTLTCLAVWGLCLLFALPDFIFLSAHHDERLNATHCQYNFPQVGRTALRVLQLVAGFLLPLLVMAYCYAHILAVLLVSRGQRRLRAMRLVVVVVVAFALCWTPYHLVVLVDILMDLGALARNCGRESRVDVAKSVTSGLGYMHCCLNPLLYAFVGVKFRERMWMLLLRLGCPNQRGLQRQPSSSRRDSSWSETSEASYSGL
Put plainly: Inhibition of CXCR3 receptor at 2 to 20 uM.

Data set [10] concerns the target T7, fMet-Leu-Phe receptor (Homo sapiens) (UniProt P21462).
T7 sequence (whole entry): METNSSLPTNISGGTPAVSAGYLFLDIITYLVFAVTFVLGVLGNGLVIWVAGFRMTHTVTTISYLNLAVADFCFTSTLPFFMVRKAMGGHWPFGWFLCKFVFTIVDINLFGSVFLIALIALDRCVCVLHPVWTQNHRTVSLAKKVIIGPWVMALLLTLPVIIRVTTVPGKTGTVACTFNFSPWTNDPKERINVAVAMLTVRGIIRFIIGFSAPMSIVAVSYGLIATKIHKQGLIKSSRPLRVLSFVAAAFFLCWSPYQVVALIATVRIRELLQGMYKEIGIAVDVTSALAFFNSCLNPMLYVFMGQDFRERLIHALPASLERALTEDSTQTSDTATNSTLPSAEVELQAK
Put plainly: Inhibition of fMLP-induced human neutrophil chemotaxis. The class given is functional.

Activity calls are given as the source filed them. The calls are words filed in the database; no cut-off is given here.

Sequence of C-C chemokine receptor type 5 (Homo sapiens) (P51681 whole entry, looked up): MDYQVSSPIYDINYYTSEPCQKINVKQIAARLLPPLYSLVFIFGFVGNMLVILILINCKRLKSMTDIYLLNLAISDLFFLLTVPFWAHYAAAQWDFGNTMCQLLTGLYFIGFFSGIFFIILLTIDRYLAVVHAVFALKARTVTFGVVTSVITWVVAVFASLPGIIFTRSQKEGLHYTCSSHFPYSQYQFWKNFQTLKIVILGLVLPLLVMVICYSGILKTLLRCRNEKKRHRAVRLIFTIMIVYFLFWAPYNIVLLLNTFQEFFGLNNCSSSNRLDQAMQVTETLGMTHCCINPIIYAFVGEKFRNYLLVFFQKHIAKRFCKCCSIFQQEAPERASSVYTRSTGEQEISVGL

In [1], `CC[C@H](Nc1c(Nc2cccc(C(=O)N(C)C)c2O)c(=O)c1=O)c1ccccc1` gave an IC50 of 234 nM. This compound displayed an AUC(0-t) at 6 h in data set [2] of 1 µM·h. The result in data set [3] was inactive.

`CC[C@@H](Nc1c(Nc2cccc(C(=O)N(C)C)c2O)c(=O)c1=O)c1ccccc1`: the IC50 in data set [1] was found to be 6.8 nM; in [4] it was 398 nM; in data set [5] it was 254 nM. The same compound registered an AUC(0-t) at 6 h in data set [2] of 17.4 µM·h.

In the case of `CC[C@@H](Nc1c(Nc2cccc(C(=O)N(C)C)c2O)c(=O)c1=O)c1ccc2c(c1)OCO2`, the IC50 in data set [1] was found to be 5 nM; in data set [5] it was 145 nM. Besides, in data set [2], the AUC(0-t) at 6 h was determined as 31.7 µM·h.

As to `Cc1ccc([C@@H](C)Nc2c(Nc3cccc(C(=O)N(C)C)c3O)c(=O)c2=O)o1`, the IC50 in [1] amounted to 5.4 nM; in [4] it was 251 nM; in data set [5], 775 nM. This compound displayed an AUC(0-t) at 6 h in data set [2] of 34 µM·h. In addition, the Ratio IC50 in data set [6] is > 100.

As for `C[C@@H](Nc1c(Nc2cccc(C(=O)N(C)C)c2O)c(=O)c1=O)c1ccccc1`, the IC50 in data set [5] worked out at 3060 nM.

As for `CC[C@@H](Nc1c(Nc2cccc(C(=O)N(C)C)c2O)c(=O)c1=O)c1ccc(C)o1` [NAVARIXIN ANHYDROUS], the outcome in data set [7] and in data set [10] was inactive. This compound registered an AUC(0-t) at 6 h in data set [2] of 49 µM·h. In addition, the inhibition in [8] and in [9] was < 15% each time.

`CN(C)C(=O)c1cccc(Nc2c(NCc3ccccc3)c(=O)c2=O)c1O` gave an IC50 in [1] of 236 nM. Further, in [3], the outcome was inactive.

Regarding `CC[C@@H](Nc1c(Nc2cccc(C(=O)N(C)C)c2O)c(=O)c1=O)c1ccc(C)s1`, the IC50 in data set [1] worked out at 5.3 nM; in data set [5], 235 nM. This compound also gave an AUC(0-t) at 6 h in [2] of 14.1 µM·h.

Turning to `CC[C@@H](Nc1c(Nc2cccc(C(=O)N(C)C)c2O)c(=O)c1=O)c1ccco1`, the IC50 in data set [1] was found to be 3.8 nM; in [5], 26 nM. In data set [2], this compound gave an AUC(0-t) at 6 h of 1.4 µM·h.

As for `Cc1ccc([C@H](Nc2c(Nc3cccc(C(=O)N(C)C)c3O)c(=O)c2=O)C2CC2)o1`, the IC50 was determined as 3.6 nM in [1] and 55 nM in [5]. Besides, the AUC(0-t) at 6 h in data set [2] was 1.4 µM·h.

In the case of `CC[C@@H](Nc1c(Nc2cccc(C(=O)N(C)C)c2O)c(=O)c1=O)c1cccc(F)c1`, the IC50 in data set [1] came to 4.9 nM; in [5] it was 197 nM. In addition, in data set [2], the AUC(0-t) at 6 h is 18.3 µM·h.

For the compound `Cc1ccc([C@H](Nc2c(Nc3cccc(C(=O)N(C)C)c3O)c(=O)c2=O)C(C)(C)C)o1`, the IC50 in [1] turned out to be 3.8 nM; in data set [5], 11 nM. In addition, the AUC(0-t) at 6 h in [2] turned out to be 2.6 µM·h.

As to `Cc1ccc([C@H](Nc2c(Nc3cccc(C(=O)N(C)C)c3O)c(=O)c2=O)C(C)C)o1`, the IC50 in [1] came to 6.2 nM; in [5], 34 nM. In data set [2], the AUC(0-t) at 6 h came out at 3.2 µM·h.

Regarding `CC[C@@H](Nc1c(Nc2cccc(C(=O)N(C)C)c2O)c(=O)c1=O)c1cccs1`, the IC50 was 6 nM in [1] and 81 nM in data set [5]. In data set [2], this compound gave an AUC(0-t) at 6 h of 2.5 µM·h.

Take `C[C@H](Nc1c(Nc2cccc(C(=O)N(C)C)c2O)c(=O)c1=O)c1ccccc1`: the result in data set [3] was inactive.

In [2], `CCC(CC)Nc1c(Nc2cccc(C(=O)N(C)C)c2O)c(=O)c1=O` yielded an AUC(0-t) at 6 h of 6.4 µM·h. In [5], this compound had an IC50 of 910 nM.

By IC50 is commonly meant the concentration that gives 50% inhibition. A higher IC50 goes with weaker potency in that assay. For orientation: AUC(0-t) means exposure summed from dosing to a finite time, without extrapolation to infinity. Higher therefore signals high exposure. As usually defined, the inhibition is the drop in the measured response relative to a control, in per cent. Lower therefore signals a weak effect.
